Data from patent publication US10406335B2, “Drug delivery systems and methods for treatment of prostate” (TARIS Biomedical LLC, priority 2012, dated 2019).

How the values were obtained:
prostate cancer = details: Phase 2 clinical studies; cited from earlier work
[1] = 14C gemcitabine tissue uptake after intra-urinary bladder perfusion or IV bolus in rats; assay type: in vivo, male Sprague Dawley rats
Experimental: The 6- and 24-hour continuous perfusions perfused 6.9 and 26.6 mg, respectively, of gemcitabine into the bladder. The single IV bolus included 5.0 mg of gemcitabine.
Blood (FIG. 8), urine, and tissue samples (e.g., bladder, prostate) (FIGS. 7 and 9) were collected and analyzed for gemcitabine content. The results are illustrated in FIGS. 7-9.

[2] = Oxaliplatin or cisplatin tissue uptake after intra-urinary bladder perfusion or IV bolus in rats; details: 6- or 24-hour continuous bladder perfusion; FIG. 10 and FIG. 11

## Nc1ccn([C@@H]2O[C@H](CO)[C@@H](O)C2(F)F)c(=O)n1 [gemcitabine]
Prostate cancer
  efficacy in prostate cancer patients: limited efficacy
[1]; 6- or 24-hour continuous bladder perfusion (6.9 and 26.6 mg), sustained urine concentrations, FIG. 9
  gemcitabine levels in bladder tissue: at or exceed therapeutic concentrations
[1]; 24 hours after a clinically relevant IV dose (5.0 mg bolus), compared with bladder perfusion, FIG. 9
  concentration of gemcitabine in the bladder: significantly lower concentration
[1]; after bladder perfusion, compared with IV administration, FIG. 7
  prostate gemcitabine tissue concentrations: substantially higher than those observed after IV administration

## O=C1[O][Pt]2([NH][C@@H]3CCCC[C@H]3[NH]2)[O]C1=O [oxaliplatin]
[2]
  bladder concentrations: achieving therapeutic bladder concentrations
